In patent US20090291088A1, “THERAPEUTIC COMBINATIONS OF ANTI-IGF-1R ANTIBODIES AND OTHER COMPOUNDS” (Biogen Idec MA Inc., priority 2008, published 2009):
Each block holds one substance with its values, some of them ahead of it.

What was measured:
[1] = test system: IGF-1R-Fc; test: Surface plasmon resonance analysis of the IGF-1R-Fc mutant library (46 mutants); type: binding, human; settings: for G11 binding: M14-G11 Fab; for G11 binding / P1E2 binding / αIR3 binding / C06 binding / C03 binding: KD relative to WT hIGF-1R-Fc; for P1E2 binding: P1E2 antibody; for αIR3 binding: αIR3 antibody; for C06 binding: M13-C06 Fab; for C03 binding: M14-C03 Fab
Method: Surface plasmon resonance (SPR) experiments were performed on a Biacore 3000 instrument set to 25° C. Both mIGF-1R-Fc and hIGF-1R-Fc bind with high apparent affinity to research grade CM5 sensorchip surfaces containing immobilized M13-C06, M14-C03, and M14-G11. The antibody sensorchip surfaces were prepared by injecting each antibody (diluted 100 μg/mL in 10 mM Acetate, pH 4.0) over EDC/NHS-activated sensorchip surfaces according to the standard protocol of the manufacturer. The ability of mIGF-1R-Fc to bind the antibody surfaces was the result of high apparent avidity of the protein. Both hIGF-1R-Fc and mIGF-1R-Fc proteins oligomerize due to the incorporation of two separate homodimeric regions (IGF-1R and IgG1-Fc). To distinguish between actual high affinity antibody binding to hIGF-1R-Fc and low affinity antibody binding to mIGF-1R-Fc, the receptor-Fc fusions were captured on the M13-C06 and M14-G11 sensorchip surfaces followed by an additional injection of antibody (αIR3 and P1E2) or antibody Fab (M13-C06, M14-C03, and M14-G11). […] After, completion of the receptor-Fc loading step, flow rates were elevated to 5 μl/min. Solutions containing M13-C06 Fab or αIR3 antibody at 10 nM, 3 nM, or 1 nM or M14-C03 Fab, M14-G11 Fab, or P1E2 antibody at 30 nM, 10 nM, or 3 nM were injected (50 μL) subsequent to the loading of each receptor-Fc construct. Dissociation was measured for 7 minutes after the antibody injections were complete. Finally, the flow rate was elevated to 30 μL/min and the chip surfaces were regenerated by 2×10 μL injections of 0.1 M glycine, pH 2.
M13-C06, M14-C03, M14-G11, P1E2 and αIR3 were assayed for their ability to interact with each of the mutant IGF-1R-Fc fusion constructs using surface plasmon resonance (Biacore). To remove the uncertain concentrations of the IGF-1R-Fc fusion constructs as a variable in the assay, each mutant construct was captured on a research grade CM5 chip containing ˜10,000 RU immobilized […], M14-C03, and M14-G11 antibody. To enhance our ability to visualize attenuations in antibody binding to the captured mutant IGF-1R constructs, we utilized enzymatically derived M13-C06, M14-C03, and M14-G11 antigen binding fragments (Fabs).

[2] = test system: IGF-1R; test: Biacore analysis of the IGF-1R-Fc mutant library: M13-C06 Fab binding to receptor-Fc captured on M13-C06 chip; parameters: species or system human; settings: for Biacore Relative RUmax: M13-C06 Fab binding to mutant hIGF-1R-Fc captured on M13-C06 chip
From the text: Both mIGF-1R-Fc and hIGF-1R-Fc bind with high apparent affinity to the M13-C06, M14-C03, and M14-G11 sensorchip surfaces described above due to their highly multivalent nature induced by the incorporation of two separate homodimeric regions (IGF-1R and IgG1-Fc). To distinguish between the actual high affinity binding hIGF-1R-Fc to M13-C06 and the low affinity binding of mIGF-1R-Fc to M13-C06, the receptor-Fc fusions were captured on the M13-C06 sensorchip surface followed by an additional soluble M13-C06 Fab binding event. […] After, completion of the receptor-Fc loading step, flow rates were elevated to 5 μl/min. 10 nM, […], and 1 nM M13-C06 Fab concentrations were injected (50 μL) subsequent to the loading of each receptor-Fc construct. At the end of each sensorgram, the flow rate was elevated to 30 μl/min and the chip surface was regenerated by 2×10 μL injections of 0.1 M glycine, pH 2.

Substance: SD204: hIGF-1R-Fc mutant S257K
- G11 binding [1]: W (Weak (W): measured KD between 2.5-10-fold higher than WT)
- P1E2 binding [1]: M (Medium (M): measured KD between 10-100-fold higher than WT)
- αIR3 binding [1]: NE (No effect (NE): measured KD within 2.5-fold of WT hIGF-1R-Fc)

Substance: SD108: hIGF-1R-Fc mutant H480E
- C06 binding [1]: S (Strong (S): binding to antibody was ablated by mutation)
- C03 binding [1]: S (Strong (S): binding to antibody was ablated by mutation)

- Biacore Relative RUmax [2]: 1.3
Substance: SD007: hIGF-1R-Fc mutant N237G
- C06 binding [1]: NE (No effect (NE): measured KD within 2.5-fold of WT hIGF-1R-Fc)
- C03 binding [1]: NE (No effect (NE): measured KD within 2.5-fold of WT hIGF-1R-Fc)
- G11 binding [1]: NE (No effect (NE): measured KD within 2.5-fold of WT hIGF-1R-Fc)
- P1E2 binding [1]: NE (No effect (NE): measured KD within 2.5-fold of WT hIGF-1R-Fc)
- αIR3 binding [1]: NE (No effect (NE): measured KD within 2.5-fold of WT hIGF-1R-Fc)

Substance: SD112: hIGF-1R-Fc mutant K568A
- C06 binding [1]: NE (No effect (NE): measured KD within 2.5-fold of WT hIGF-1R-Fc)
- C03 binding [1]: W (Weak (W): measured KD between 2.5-10-fold higher than WT)

- Biacore Relative RUmax [2]: 0.6
Substance: SD009: hIGF-1R-Fc mutant E264K
- C06 binding [1]: NE (No effect (NE): measured KD within 2.5-fold of WT hIGF-1R-Fc)
- C03 binding [1]: NE (No effect (NE): measured KD within 2.5-fold of WT hIGF-1R-Fc)
- G11 binding [1]: NE (No effect (NE): measured KD within 2.5-fold of WT hIGF-1R-Fc)
- P1E2 binding [1]: NE (No effect (NE): measured KD within 2.5-fold of WT hIGF-1R-Fc)
- αIR3 binding [1]: NE (No effect (NE): measured KD within 2.5-fold of WT hIGF-1R-Fc)

Substance: SD208: hIGF-1R-Fc mutant V301Y
- G11 binding [1]: NE (No effect (NE): measured KD within 2.5-fold of WT hIGF-1R-Fc)
- P1E2 binding [1]: NE (No effect (NE): measured KD within 2.5-fold of WT hIGF-1R-Fc)
- αIR3 binding [1]: W (Weak (W): measured KD between 2.5-10-fold higher than WT)

Substance: SD111: hIGF-1R-Fc mutant I564T R565A
- C06 binding [1]: W (Weak (W): measured KD between 2.5-10-fold higher than WT)
- C03 binding [1]: W (Weak (W): measured KD between 2.5-10-fold higher than WT)

Substance: SD202: hIGF-1R-Fc mutant D250S
- G11 binding [1]: S (Strong (S): binding to antibody was ablated by mutation)
- P1E2 binding [1]: NE (No effect (NE): measured KD within 2.5-fold of WT hIGF-1R-Fc)
- αIR3 binding [1]: NE (No effect (NE): measured KD within 2.5-fold of WT hIGF-1R-Fc)

- C06 binding [1]: S-most
- C03 binding [1]: S-most
Substance: SD103: hIGF-1R-Fc mutant D461A V462T
- effect of mutation on M13-C06 and M14-C03 Fab binding [1]: no reactivity towards the M13-C06 and M14-C03 Fabs

Substance: SD201: hIGF-1R-Fc mutant D248A
- G11 binding [1]: S (Strong (S): binding to antibody was ablated by mutation)
- P1E2 binding [1]: W (Weak (W): measured KD between 2.5-10-fold higher than WT)
- αIR3 binding [1]: S (Strong (S): binding to antibody was ablated by mutation)

- binding activity toward M13-C06 ([2]; SPR and tr-FRET, both assays): virtually no binding activity
Substance: SD015: hIGF-1R-Fc mutant H464E (Table 20), E464H
- effect of mutation on M13-C06 and M14-C03 Fab binding [1]: complete ablation of the binding reaction
- C06 binding [1]: S (Strong (S): binding to antibody was ablated by mutation)
- C03 binding [1]: S (Strong (S): binding to antibody was ablated by mutation)
- G11 binding [1]: NE (No effect (NE): measured KD within 2.5-fold of WT hIGF-1R-Fc)

Substance: SD207: hIGF-1R-Fc mutant G265Y
- G11 binding [1]: W (Weak (W): measured KD between 2.5-10-fold higher than WT)
- P1E2 binding [1]: S (Strong (S): binding to antibody was ablated by mutation)
- αIR3 binding [1]: S (Strong (S): binding to antibody was ablated by mutation)

Substance: SD107: hIGF-1R-Fc mutant T478R
- C06 binding [1]: NE (No effect (NE): measured KD within 2.5-fold of WT hIGF-1R-Fc)
- C03 binding [1]: W (Weak (W): measured KD between 2.5-10-fold higher than WT)

Substance: SD105: hIGF-1R-Fc mutant T466L S467Y
- C06 binding [1]: W (Weak (W): measured KD between 2.5-10-fold higher than WT)
- C03 binding [1]: W (Weak (W): measured KD between 2.5-10-fold higher than WT)

Substance: SD109: hIGF-1R-Fc mutant Y482A R483W
- C06 binding [1]: S (Strong (S): binding to antibody was ablated by mutation)
- C03 binding [1]: S (Strong (S): binding to antibody was ablated by mutation)

Substance: SD210: hIGF-1R-Fc mutant T308E
- G11 binding [1]: NE (No effect (NE): measured KD within 2.5-fold of WT hIGF-1R-Fc)
- P1E2 binding [1]: NE (No effect (NE): measured KD within 2.5-fold of WT hIGF-1R-Fc)
- αIR3 binding [1]: W (Weak (W): measured KD between 2.5-10-fold higher than WT)

Substance: SD106: hIGF-1R-Fc mutant T468R
- C06 binding [1]: NE (No effect (NE): measured KD within 2.5-fold of WT hIGF-1R-Fc)
- C03 binding [1]: NE (No effect (NE): measured KD within 2.5-fold of WT hIGF-1R-Fc)

Substance: SD203: hIGF-1R-Fc mutant N254A
- G11 binding [1]: M (Medium (M): measured KD between 10-100-fold higher than WT)
- P1E2 binding [1]: S (Strong (S): binding to antibody was ablated by mutation)
- αIR3 binding [1]: M (Medium (M): measured KD between 10-100-fold higher than WT)

Substance: SD110: hIGF-1R-Fc mutant E533H
- C06 binding [1]: W (Weak (W): measured KD between 2.5-10-fold higher than WT)
- C03 binding [1]: S (Strong (S): binding to antibody was ablated by mutation)

- Biacore Relative RUmax [2]: 1.0
Substance: SDWT: wild-type hIGF-1R-Fc

Substance: SD102: hIGF-1R-Fc mutant E459A S460A
- C06 binding [1]: S (Strong (S): binding to antibody was ablated by mutation)
- C03 binding [1]: S (Strong (S): binding to antibody was ablated by mutation)

Substance: SD205: hIGF-1R-Fc mutant E259K S260N
- G11 binding [1]: W (Weak (W): measured KD between 2.5-10-fold higher than WT)
- P1E2 binding [1]: NE (No effect (NE): measured KD within 2.5-fold of WT hIGF-1R-Fc)
- αIR3 binding [1]: NE (No effect (NE): measured KD within 2.5-fold of WT hIGF-1R-Fc)

Substance: SD209: hIGF-1R-Fc mutant K306E
- G11 binding [1]: NE (No effect (NE): measured KD within 2.5-fold of WT hIGF-1R-Fc)
- P1E2 binding [1]: NE (No effect (NE): measured KD within 2.5-fold of WT hIGF-1R-Fc)
- αIR3 binding [1]: NE (No effect (NE): measured KD within 2.5-fold of WT hIGF-1R-Fc)

Substance: SD101: hIGF-1R-Fc mutant S427L
- C06 binding [1]: NE (No effect (NE): measured KD within 2.5-fold of WT hIGF-1R-Fc)
- C03 binding [1]: NE (No effect (NE): measured KD within 2.5-fold of WT hIGF-1R-Fc)

Substance: SD206: hIGF-1R-Fc mutant S263R
- G11 binding [1]: W (Weak (W): measured KD between 2.5-10-fold higher than WT)
- P1E2 binding [1]: NE (No effect (NE): measured KD within 2.5-fold of WT hIGF-1R-Fc)
- αIR3 binding [1]: W (Weak (W): measured KD between 2.5-10-fold higher than WT)

Substance: SD211: hIGF-1R-Fc mutant K327N
- G11 binding [1]: NE (No effect (NE): measured KD within 2.5-fold of WT hIGF-1R-Fc)
- P1E2 binding [1]: NE (No effect (NE): measured KD within 2.5-fold of WT hIGF-1R-Fc)
- αIR3 binding [1]: W (Weak (W): measured KD between 2.5-10-fold higher than WT)

Substance: SD113: hIGF-1R-Fc mutant E570A I571T
- C06 binding [1]: S (Strong (S): binding to antibody was ablated by mutation)
- C03 binding [1]: S (Strong (S): binding to antibody was ablated by mutation)

Substance: SD104: hIGF-1R-Fc mutant H464A
- C06 binding [1]: S (Strong (S): binding to antibody was ablated by mutation)
- C03 binding [1]: S (Strong (S): binding to antibody was ablated by mutation)

Substance: SD212: hIGF-1R-Fc mutant L379R
- G11 binding [1]: NE (No effect (NE): measured KD within 2.5-fold of WT hIGF-1R-Fc)
- P1E2 binding [1]: NE (No effect (NE): measured KD within 2.5-fold of WT hIGF-1R-Fc)
- αIR3 binding [1]: W (Weak (W): measured KD between 2.5-10-fold higher than WT)
